Read-outs that look alike come from different tables or passages of the source.
What was measured:
Transporter, GABA = target: T1, Transporter, GABA (Rattus norvegicus, UniProt P23978); assay: Radioligand binding 226400; settings: 10 µM
T1 construct: Wistar Rat cerebral cortex; tissue Eurofins Panlabs 226400; host or cells: Wistar rat cerebral cortex

Opiate δ1 (OP1, DOP) = Opiate δ1 (OP1, DOP) (Homo sapiens, UniProt P41143); format: binding; parameters: host or cells: HEK-293 cells; settings: 10 µM
[1] = target: T2, Transporter, Norepinephrine (NET) (Homo sapiens, UniProt P23975); format: binding; settings: 10 µM
T2 construct: host or cells: MDCK

[2] = target: T3, Epidermal Growth Factor (EGF) (Homo sapiens, UniProt P00533); assay: Radioligand binding 225510; settings: 10 µM
T3 construct: Human A431 cells; host or cells: A431 cells

Dopamine D3 = target: T4, Dopamine D3 (Homo sapiens, UniProt P35462); format: binding; settings: 10 µM
T4 construct: host or cells: CHO cells

[3] = tested on: K1 antigen of E. coli UTI89; assay: K1 antigen dot blot; format: cell-based, Escherichia coli; settings: 100 µM
Protocol: K1 antigen was detected by dot blot assays of culture extracts probed with anti-K1 H46 serum. The assay was performed as previously described. The experiment was repeated twice with similar results, and a representative dot blot is shown.

Glucocorticoid = Glucocorticoid (Homo sapiens, UniProt P04150); assay: Radioligand binding 232030; parameters: host or cells: insect cells; settings: 10 µM
Rolipram = assay: Radioligand binding 270000; parameters: species or system rat; settings: 10 µM
[4] = Human
Adrenergic β1 = target: T5, Adrenergic β1 (Homo sapiens, UniProt P08588); format: binding; settings: 10 µM
T5 construct: host or cells: CHO-K1 cells

Dopamine D1 = target: T6, Dopamine D1 (Homo sapiens, UniProt P21728); format: binding; settings: 10 µM
T6 construct: host or cells: CHO cells

GABAA, Muscimol, Central = format: binding, rat; settings: 10 µM
[5] = Mouse
Muscarinic M3 = Muscarinic M3 (Homo sapiens, UniProt P20309); format: binding; parameters: host or cells: CHO-K1 cells; settings: 10 µM
Tachykinin NK1 = target: T7, Tachykinin NK1 (Homo sapiens, UniProt P25103); assay: Radioligand binding 255520; settings: 10 µM
T7 construct: host or cells: CHO

[6] = format: physicochemical
Protocol: SI2-Supporting Information- Goller et al.
Experimental procedures for aqueous and LB medium solubility, hepatic microsome stability, PAMPA permeability, and plasma stability
Aqueous and LB Medium Solubility: Solubility analysis was performed using a direct UV kinetic solubility method in a 96-well format. All liquid dispense and transfer steps were performed with the Freedom Evo automated liquid handler (Tecan US). Solubility measurements were performed in buffer solution (PBS (pH 7.4) or LB medium), in duplicate. Samples were incubated at room temperature for a minimum of 18 hrs to achieve equilibrium, then filtered (filter plate, pION Inc, P/N 110322) to remove any precipitate formed. The concentration of the compounds was measured by UV absorbance (250-498 nm) using the Infinite M200 (Tecan US) and compared to the spectra of the precipitation-free reference solutions. Spectroscopically pure 1-Propanol (Sigma P/N 256404) was used as a cosolvent to suppress precipitation in the reference solutions.
The solubility of each compound was determined using µSOL Evolution Plus software v3.2 (pION Inc) and is expressed as the concentration (µg/mL) of a solute in a saturated solution. […]
Hepatic Microsome Stability: Metabolic stability was assessed in the presence of human liver microsomes (XenoTech, P/N H0630) and mouse liver microsomes (XenoTech, P/N M1000). […]

Endothelin ETA = target: T8, Endothelin ETA (Homo sapiens, UniProt P25101); format: binding; settings: 10 µM
T8 construct: host or cells: CHO-K1 cells

Interleukin IL-1 = target: T9, Interleukin IL-1 (Mus musculus, UniProt P13504); assay: Radioligand binding 243520; settings: 10 µM
T9 construct: Mouse 3T3-SWISS cells; host or cells: Swiss 3T3 mouse fibroblasts

Adenosine A3 = Adenosine A3 (Homo sapiens, UniProt P0DMS8); format: binding; settings: 10 µM
[7] = Human; remark: listed apart in the source
Histamine H1 = target: T10, Histamine H1 (Homo sapiens, UniProt P35367); format: binding; settings: 10 µM
T10 construct: host or cells: CHO-K1 cells

Estrogen ERα = target: T11, Estrogen ERα (Homo sapiens, UniProt P03372); format: binding; settings: 10 µM
T11 construct: host or cells: insect Sf9 cells

T9 sequence (P13504 20-576): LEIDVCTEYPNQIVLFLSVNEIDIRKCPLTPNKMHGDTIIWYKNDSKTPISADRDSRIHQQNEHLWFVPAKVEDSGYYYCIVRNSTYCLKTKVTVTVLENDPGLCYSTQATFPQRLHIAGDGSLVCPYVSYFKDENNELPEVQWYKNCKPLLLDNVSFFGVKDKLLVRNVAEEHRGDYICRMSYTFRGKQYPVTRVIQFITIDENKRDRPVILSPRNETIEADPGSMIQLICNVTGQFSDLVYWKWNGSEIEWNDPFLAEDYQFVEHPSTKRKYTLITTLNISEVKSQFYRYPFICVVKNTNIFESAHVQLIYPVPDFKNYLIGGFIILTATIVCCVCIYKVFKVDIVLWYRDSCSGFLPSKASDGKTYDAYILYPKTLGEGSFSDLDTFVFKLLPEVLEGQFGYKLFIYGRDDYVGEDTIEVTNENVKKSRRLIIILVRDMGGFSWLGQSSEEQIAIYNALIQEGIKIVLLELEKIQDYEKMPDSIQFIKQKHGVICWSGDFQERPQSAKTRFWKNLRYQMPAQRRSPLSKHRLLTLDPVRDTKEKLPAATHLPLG
T4 sequence (P35462 whole entry): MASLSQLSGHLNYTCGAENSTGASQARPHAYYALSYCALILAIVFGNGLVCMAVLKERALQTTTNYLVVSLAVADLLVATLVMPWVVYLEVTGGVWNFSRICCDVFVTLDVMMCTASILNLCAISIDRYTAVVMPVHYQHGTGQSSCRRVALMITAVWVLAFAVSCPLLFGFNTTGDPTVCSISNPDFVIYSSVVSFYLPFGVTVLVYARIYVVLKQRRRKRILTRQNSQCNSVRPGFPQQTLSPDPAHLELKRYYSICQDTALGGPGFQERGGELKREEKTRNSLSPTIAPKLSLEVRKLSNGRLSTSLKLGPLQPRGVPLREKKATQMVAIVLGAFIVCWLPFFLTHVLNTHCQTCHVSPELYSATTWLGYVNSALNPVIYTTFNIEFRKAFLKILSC
T3 sequence (P00533 25-1210): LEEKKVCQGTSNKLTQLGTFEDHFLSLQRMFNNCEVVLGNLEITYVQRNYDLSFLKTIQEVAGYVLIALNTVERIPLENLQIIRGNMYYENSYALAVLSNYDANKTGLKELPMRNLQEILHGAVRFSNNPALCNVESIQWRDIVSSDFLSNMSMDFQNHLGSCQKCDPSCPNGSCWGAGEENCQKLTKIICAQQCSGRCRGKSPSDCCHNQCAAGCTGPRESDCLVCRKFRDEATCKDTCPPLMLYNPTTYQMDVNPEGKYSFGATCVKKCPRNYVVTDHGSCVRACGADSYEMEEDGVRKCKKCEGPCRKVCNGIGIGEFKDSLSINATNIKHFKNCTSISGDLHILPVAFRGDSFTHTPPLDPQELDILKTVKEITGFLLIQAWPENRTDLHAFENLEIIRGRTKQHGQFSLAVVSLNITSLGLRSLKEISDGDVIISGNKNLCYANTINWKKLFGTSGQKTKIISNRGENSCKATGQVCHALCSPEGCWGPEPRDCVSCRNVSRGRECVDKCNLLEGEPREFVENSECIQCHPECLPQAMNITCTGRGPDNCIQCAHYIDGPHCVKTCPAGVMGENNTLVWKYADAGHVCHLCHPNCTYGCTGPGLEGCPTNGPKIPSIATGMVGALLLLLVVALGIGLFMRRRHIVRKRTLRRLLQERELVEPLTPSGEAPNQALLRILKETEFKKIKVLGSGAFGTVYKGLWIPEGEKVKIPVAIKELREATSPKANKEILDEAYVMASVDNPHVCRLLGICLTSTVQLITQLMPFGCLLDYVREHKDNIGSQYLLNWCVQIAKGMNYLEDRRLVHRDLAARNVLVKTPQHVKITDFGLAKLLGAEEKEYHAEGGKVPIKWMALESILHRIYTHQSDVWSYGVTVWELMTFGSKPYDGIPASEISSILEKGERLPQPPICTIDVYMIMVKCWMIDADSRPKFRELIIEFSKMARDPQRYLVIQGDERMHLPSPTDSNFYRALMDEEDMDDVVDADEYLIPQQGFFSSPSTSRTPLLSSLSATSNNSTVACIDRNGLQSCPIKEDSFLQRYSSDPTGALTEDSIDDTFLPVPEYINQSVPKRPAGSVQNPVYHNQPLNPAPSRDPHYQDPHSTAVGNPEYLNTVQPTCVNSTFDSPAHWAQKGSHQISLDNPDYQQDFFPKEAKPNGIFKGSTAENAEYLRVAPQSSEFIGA
T5 sequence (P08588 whole entry): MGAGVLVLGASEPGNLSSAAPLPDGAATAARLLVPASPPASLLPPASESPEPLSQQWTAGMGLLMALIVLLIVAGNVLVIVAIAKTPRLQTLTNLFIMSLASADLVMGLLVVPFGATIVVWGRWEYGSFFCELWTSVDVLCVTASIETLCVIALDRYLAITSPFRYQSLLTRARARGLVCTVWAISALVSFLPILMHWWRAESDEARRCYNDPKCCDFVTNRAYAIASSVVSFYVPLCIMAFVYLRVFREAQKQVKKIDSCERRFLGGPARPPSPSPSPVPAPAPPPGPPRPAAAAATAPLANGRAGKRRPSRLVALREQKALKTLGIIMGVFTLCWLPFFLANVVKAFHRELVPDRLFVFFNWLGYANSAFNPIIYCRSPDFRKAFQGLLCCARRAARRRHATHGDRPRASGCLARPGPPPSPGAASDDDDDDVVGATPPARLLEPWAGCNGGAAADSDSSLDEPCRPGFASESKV
Adenosine A3, sequence (P0DMS8 whole entry): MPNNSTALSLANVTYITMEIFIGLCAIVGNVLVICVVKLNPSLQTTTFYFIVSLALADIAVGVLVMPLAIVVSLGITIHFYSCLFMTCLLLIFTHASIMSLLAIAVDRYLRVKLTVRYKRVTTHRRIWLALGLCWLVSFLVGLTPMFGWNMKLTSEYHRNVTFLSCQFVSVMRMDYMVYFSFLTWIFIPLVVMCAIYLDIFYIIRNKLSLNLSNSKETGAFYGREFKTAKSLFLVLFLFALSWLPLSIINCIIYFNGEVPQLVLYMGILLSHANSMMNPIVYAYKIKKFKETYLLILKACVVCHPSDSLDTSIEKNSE
Opiate δ1 (OP1, DOP), sequence (P41143 whole entry): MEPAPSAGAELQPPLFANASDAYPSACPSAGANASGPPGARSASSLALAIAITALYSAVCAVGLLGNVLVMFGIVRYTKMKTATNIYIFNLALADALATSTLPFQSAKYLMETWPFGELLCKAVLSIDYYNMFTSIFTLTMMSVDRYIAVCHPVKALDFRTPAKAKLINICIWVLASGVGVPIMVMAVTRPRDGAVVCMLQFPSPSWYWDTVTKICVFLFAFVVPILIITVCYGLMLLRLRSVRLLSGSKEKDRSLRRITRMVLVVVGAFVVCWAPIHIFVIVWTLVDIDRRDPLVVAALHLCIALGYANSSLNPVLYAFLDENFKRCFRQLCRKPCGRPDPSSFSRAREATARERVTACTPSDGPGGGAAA
T2 sequence (P23975 whole entry): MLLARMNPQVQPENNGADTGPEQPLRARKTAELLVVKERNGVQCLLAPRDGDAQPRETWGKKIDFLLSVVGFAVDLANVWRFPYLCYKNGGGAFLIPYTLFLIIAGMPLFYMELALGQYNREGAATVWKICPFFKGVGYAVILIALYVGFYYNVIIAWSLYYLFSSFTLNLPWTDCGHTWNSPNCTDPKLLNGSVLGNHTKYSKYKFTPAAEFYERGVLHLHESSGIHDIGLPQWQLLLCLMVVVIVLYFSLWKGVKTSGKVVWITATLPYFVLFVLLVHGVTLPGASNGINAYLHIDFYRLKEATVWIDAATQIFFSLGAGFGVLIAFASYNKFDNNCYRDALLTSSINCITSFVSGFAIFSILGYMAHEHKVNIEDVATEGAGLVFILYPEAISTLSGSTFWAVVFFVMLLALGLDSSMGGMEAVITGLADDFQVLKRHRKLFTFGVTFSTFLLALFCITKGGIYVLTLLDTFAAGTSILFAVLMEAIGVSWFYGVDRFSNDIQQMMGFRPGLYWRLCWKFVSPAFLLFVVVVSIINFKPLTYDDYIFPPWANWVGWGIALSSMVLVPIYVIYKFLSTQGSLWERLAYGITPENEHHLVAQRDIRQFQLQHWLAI
T7 sequence (P25103 whole entry): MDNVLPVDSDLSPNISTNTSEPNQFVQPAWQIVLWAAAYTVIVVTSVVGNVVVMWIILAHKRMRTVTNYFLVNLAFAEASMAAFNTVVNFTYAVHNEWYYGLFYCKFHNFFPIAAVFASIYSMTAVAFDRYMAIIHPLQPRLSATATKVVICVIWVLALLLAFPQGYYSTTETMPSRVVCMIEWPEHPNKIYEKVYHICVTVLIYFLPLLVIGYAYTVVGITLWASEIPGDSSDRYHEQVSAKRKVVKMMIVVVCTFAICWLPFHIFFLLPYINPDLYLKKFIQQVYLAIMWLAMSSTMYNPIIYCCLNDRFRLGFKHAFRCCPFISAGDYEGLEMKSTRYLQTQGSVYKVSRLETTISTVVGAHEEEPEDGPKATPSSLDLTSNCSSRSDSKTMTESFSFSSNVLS

CCOc1ccc(-c2cc(NC(=O)c3c(F)cccc3F)c(C(=O)O)s2)cc1 [DU011]
% Inh. (Transporter, GABA): -4% | % Inh. (Opiate δ1 (OP1, DOP)): 10% | % Inh. [1]: 58% | % Inh. [2]: 8% | % Inh. (Dopamine D3): 6% | K1 reactive material, whole-cell anti-K1 dot blot [3]: reduces K1 reactive material to levels comparable to those of genetic capsule mutants | % Inh. (Glucocorticoid): 16% | % Inh. (Rolipram): 3% | Hepatic Microsome Stability, percent remaining at 1 hr [4]: 89.64% | % Inh. (Adrenergic β1): 3% | % Inh. (Dopamine D1): 4% | % Inh. (GABAA, Muscimol, Central): 4% | Hepatic Microsome Stability, percent remaining at 1 hr [5]: 74.32% | % Inh. (Muscarinic M3): -3% | % Inh. (Tachykinin NK1): 7% | Aqueous Solubility ([6]; 1× PBS): 92.6 µg/mL | Aqueous Solubility ([6]; LB medium): 68 µg/mL | % Inh. (Endothelin ETA): -4% | % Inh. (Interleukin IL-1): 4% | % Inh. (Adenosine A3): -5% | Plasma Stability, percent remaining at 3 hrs [7]: 95.31% | % Inh. (Histamine H1): -16% | % Inh. (Estrogen ERα): 13%

Reference: paper PMC4077706, “Lifting the Mask: Identification of New Small Molecule Inhibitors of Uropathogenic Escherichia coli Group 2 Capsule Biogenesis” (PLoS ONE, 2014)
